Laboratory results: PMC5699943 (Biotechnology and bioengineering, 2017)

Tests used:
Assay in all cases: formaldehyde-responsive FrmR GFP reporter in E. coli cells
Format in all cases: cell-based
Conditions in all cases: whole cells, 0-500 mM methanol, 2 h, 37°C, NAD-dependent
[1] = biological target: T1, mdh from Geobacillus stearothermophilus (Geobacillus stearothermophilus, UniProt P42327)
T1 sequence (P42327 1-339): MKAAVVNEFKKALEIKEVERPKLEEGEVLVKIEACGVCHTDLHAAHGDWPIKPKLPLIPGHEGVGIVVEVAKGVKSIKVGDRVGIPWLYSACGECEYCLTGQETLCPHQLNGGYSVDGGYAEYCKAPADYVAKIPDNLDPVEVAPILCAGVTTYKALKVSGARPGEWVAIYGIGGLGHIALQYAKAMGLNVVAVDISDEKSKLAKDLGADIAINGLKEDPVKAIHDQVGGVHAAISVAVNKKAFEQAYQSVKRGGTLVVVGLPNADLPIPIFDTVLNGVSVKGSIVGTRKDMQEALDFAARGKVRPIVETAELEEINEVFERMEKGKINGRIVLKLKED

AdhA from C. glutamicum = biological target: T2, AdhA from C. glutamicum (Corynebacterium glutamicum, UniProt Q8NLX9)
T2 sequence (Q8NLX9 1-345): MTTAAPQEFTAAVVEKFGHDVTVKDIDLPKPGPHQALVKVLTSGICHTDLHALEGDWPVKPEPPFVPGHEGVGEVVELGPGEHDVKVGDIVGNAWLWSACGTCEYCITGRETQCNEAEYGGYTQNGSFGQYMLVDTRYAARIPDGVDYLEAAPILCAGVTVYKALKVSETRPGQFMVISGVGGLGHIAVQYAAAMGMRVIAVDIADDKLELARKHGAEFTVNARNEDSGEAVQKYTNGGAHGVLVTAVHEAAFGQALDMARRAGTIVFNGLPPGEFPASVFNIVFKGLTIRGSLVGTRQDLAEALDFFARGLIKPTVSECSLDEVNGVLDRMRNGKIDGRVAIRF

[2] = biological target: T3, mdh2 from Cupriavidus necator (Cupriavidus necator, UniProt F8GNE5)
T3 sequence (F8GNE5 1-390): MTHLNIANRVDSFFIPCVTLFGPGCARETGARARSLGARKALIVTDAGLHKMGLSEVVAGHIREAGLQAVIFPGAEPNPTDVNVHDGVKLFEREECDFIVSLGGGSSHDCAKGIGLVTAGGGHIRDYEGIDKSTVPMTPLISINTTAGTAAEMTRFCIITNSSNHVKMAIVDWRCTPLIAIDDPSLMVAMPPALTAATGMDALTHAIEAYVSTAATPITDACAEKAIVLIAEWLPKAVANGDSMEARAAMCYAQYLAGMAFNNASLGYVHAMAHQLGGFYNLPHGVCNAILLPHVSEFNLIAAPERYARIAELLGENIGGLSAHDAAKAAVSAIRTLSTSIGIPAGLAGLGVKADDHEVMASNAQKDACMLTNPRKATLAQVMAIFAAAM

Structure (SMILES): CO [methanol]
- formaldehyde-responsive FrmR GFP reporter in E. coli cells [1]: After two hours, signal was detected for all variants except Mdh1
- formaldehyde-responsive FrmR GFP reporter in E. coli cells (AdhA from C. glutamicum): After two hours, signal was detected for all variants except Mdh1
- formaldehyde-responsive FrmR GFP reporter in E. coli cells [2]: After two hours, signal was detected for all variants except Mdh1
